Data reported in article PMC3854447, “Functional characterisation of three members of the Vitis vinifera L. carotenoid cleavage dioxygenase gene family” (BMC Plant Biology, 2013).

Biological target: T1, VvCCD1 (Vitis vinifera, UniProt U3M7F6)
T1 construct: gene CCD1; 1715 bp coding region from Pinotage cDNA, NdeI/PstI in pTWIN1, expressed in carotenoid-accumulating E. coli
Assay: co-expression in carotenoid-accumulating E. coli, HS-SPME GC/MS of volatile apocarotenoid
Type: cell-based
Details: beta-carotene strain (pAC-BETA); product beta-ionone; Fe2+ and ascorbate added; room temperature, 16 h, dark

T1 sequence (U3M7F6 1-542): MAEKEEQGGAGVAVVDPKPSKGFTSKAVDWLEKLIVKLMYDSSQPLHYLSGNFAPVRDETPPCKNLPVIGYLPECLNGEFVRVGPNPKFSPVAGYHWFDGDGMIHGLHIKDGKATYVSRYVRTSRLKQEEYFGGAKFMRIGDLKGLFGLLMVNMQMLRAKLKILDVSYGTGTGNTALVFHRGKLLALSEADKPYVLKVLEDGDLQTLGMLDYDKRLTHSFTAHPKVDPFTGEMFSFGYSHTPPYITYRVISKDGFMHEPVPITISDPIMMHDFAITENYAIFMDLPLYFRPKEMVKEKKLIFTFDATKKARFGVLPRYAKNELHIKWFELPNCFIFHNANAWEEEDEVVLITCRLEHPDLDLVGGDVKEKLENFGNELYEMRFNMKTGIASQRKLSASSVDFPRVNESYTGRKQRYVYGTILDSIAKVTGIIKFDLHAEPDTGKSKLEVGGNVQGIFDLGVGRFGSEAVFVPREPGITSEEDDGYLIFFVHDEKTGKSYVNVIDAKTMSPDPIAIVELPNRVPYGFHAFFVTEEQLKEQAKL

## CC1=C(/C=C/C(C)=C/C=C/C(C)=C/C=C/C=C(C)/C=C/C=C(C)/C=C/C2=C(C)CCCC2(C)C)C(C)(C)CCC1 [β-carotene]
  co-expression in carotenoid-accumulating E. coli, HS-SPME GC/MS of volatile apoc: Only VvCCD1, however, catalysed β-carotene cleavage to form β-ionone
